Measurements: patent US7135466B2 (Kirin Beer Kabushiki Kaisha, priority 1999, dated 2006)
Where two headings read alike, the source gives them in different places.

Key:
[1] = target: T1, PDGF-Ra (Homo sapiens, UniProt P16234); assay: Inhibitory activity against PDGF-Ra phosphorylation by PDGF-AA stimulation using G292; format: cell-based; details: for IC50: > means inhibition at indicated concentration not more than 50%, < and << not less than 50%, read-out: PDGF (E) IC50; for inhibition at 0.1 µM: G292, figure within parentheses in >100( ), at 100 nM, read-out: PDGF (E) inhibition (%) at 100 nM
T1 construct: host or cells: G-292 human osteosarcoma cells
Method in brief: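 Human osteosarcoma G-292, 0.1% FBS o/n; cpd (DMSO) 1 h 37 °C; PDGF-AA 50 ng/ml 5 min; lyse 20 min RT; PY-20 capture 4 °C o/n; anti-PDGF-Ra + HRP-GAR; OD450.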

[2] = target: T2, c-kit (Homo sapiens, UniProt P10721); assay: Inhibitory activity against c-kit autophosphorylation (MO7e cells, h-SCF); format: cell-based; details: for inhibition at 1 µM: Mo7e, at 1000 nM; for IC50: MO7e cells, read-out: c-kit IC50
T2 construct: MO7e (human megakaryocytic leukemia cell line) which had been arrested for 20 hr; endogenous in cells; host or cells: MO7e human megakaryocytic leukemia cell line
Method in brief: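 First, human megakaryocytic leukemia MO7e cells arrested 20 hr receive compound for one hour. Second, SCF stimulation (50 ng/ml) runs 5 min, after which cells are solubilized. Third, tyrosine-phosphorylated c-kit in the lysate is quantified by sandwich ELISA with absorbance at 450 nm.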

[3] = figure within parentheses in −( ) or >1000( )

T2 sequence (P10721 26-976): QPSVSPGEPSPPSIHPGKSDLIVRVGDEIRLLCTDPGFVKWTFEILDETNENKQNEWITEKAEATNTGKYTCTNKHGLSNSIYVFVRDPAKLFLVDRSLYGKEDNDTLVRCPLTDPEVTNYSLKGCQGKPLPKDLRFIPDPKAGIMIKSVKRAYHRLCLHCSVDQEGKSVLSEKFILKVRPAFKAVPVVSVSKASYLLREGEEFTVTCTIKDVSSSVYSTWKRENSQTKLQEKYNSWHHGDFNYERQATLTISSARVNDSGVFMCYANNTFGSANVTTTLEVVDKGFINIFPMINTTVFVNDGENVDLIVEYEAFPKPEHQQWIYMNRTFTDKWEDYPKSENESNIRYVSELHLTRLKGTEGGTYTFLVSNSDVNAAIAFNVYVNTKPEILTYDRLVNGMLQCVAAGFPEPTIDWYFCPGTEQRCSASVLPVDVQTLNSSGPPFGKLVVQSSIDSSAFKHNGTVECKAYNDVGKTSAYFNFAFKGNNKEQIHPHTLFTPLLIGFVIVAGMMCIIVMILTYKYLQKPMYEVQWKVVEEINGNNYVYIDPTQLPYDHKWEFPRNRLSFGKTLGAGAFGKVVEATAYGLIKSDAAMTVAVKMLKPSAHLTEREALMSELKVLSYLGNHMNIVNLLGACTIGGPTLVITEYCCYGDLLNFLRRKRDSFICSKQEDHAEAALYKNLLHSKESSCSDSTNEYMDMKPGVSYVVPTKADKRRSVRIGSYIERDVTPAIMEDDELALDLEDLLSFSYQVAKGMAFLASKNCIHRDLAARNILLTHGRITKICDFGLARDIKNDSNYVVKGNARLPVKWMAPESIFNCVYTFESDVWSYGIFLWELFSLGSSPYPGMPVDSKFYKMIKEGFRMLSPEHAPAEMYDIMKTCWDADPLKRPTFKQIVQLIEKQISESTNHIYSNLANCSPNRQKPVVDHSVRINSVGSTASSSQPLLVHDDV
T1 sequence (P16234 24-1089): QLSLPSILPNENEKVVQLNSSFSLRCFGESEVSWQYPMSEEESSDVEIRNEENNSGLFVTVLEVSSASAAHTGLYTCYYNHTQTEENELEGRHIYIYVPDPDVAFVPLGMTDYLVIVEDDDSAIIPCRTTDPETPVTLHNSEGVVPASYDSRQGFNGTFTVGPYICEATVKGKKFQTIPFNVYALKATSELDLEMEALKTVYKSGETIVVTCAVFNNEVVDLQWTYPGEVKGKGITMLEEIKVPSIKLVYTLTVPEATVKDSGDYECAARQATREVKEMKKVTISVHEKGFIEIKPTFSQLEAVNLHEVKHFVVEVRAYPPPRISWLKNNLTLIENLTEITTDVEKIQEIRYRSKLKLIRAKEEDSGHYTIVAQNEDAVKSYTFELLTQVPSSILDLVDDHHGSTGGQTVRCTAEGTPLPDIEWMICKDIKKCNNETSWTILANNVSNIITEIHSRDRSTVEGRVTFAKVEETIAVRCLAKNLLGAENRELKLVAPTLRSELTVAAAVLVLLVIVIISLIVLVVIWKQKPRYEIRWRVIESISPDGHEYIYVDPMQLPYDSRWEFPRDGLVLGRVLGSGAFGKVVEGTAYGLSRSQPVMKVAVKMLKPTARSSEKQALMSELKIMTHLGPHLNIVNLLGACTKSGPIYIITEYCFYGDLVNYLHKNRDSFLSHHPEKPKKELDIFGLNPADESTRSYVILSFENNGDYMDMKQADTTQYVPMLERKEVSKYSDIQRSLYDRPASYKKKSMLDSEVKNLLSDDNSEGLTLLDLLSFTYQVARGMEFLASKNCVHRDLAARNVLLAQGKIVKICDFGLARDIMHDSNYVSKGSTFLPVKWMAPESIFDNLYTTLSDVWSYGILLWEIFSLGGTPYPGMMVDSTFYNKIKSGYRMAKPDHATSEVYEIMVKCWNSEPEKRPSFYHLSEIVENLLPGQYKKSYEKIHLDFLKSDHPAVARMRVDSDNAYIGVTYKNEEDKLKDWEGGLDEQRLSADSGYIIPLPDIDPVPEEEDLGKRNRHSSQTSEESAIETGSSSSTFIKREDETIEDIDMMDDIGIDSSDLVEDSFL

| Structure (SMILES) | IC50 [1] [nM] | IC50 ([2]; 50 ng/ml h-SCF) [nM] | IC50 ([1]; Pharmacological Test Example 1) [nM] | IC50 ([2]; h-SCF 50 ng/ml) [nM] | also measured |
| --- | --- | --- | --- | --- | --- |
| COc1cc2ncnc(Oc3ccc(NC(=O)NC4CCN(Cc5ccc(C(C)(C)C)cc5)C4)c([N+](=O)[O-])c3)c2cc1OC (stereo not drawn) [Example 584, N-{1-[4-(Tert-butyl)benzyl]tetrahydro-1H-3-pyrrolyl}-N′-{4-[(6,7-dimethoxy-4-quinazolinyl)oxy]-2-nitrophenyl}urea] | > 100 |  |  |  | inhibition at 0.1 µM [1]: 13%; inhibition at 1 µM [2, 3]: 13% |
| COc1cc2nccc(Oc3cc(C)c(NC(=O)NCCN(C(C)C)C(C)C)cc3C)c2cc1OC [Example 671, N-[2-(Diisopropylamino)ethyl]-N′-{4-[(6,7-dimethoxy-4-quinolyl)oxy]-2,5-dimethylphenyl}urea] | 64 |  |  |  | inhibition at 1 µM [2, 3]: 22% |
| COc1cc2ncnc(Oc3ccc(NC(=O)OC4CCCCCC4)c(Cl)c3)c2cc1OC [Example 343, Cycloheptyl N-{2-chloro-4-[(6,7-dimethoxy-4-quinazolinyl)oxy]phenyl}carbamate] |  |  | < 10 | 232 |  |
| COc1cc2nccc(Oc3cc(C)c(NC(=O)NCCN(C)C)cc3C)c2cc1OC [Example 625, N-{4-[(6,7-Dimethoxy-4-quinolyl)oxy]-2,5-dimethylphenyl}-N′-[2-(dimethylamino)ethyl]urea] | > 100 | 596 |  |  | inhibition at 0.1 µM [1]: 31% |
| CCN(CCNC(=S)Nc1ccc(Oc2ccnc3cc(OC)c(OC)cc23)c(C)c1C)c1ccccc1C [Example 544, N-{4-[(6,7-Dimethoxy-4-quinolyl)oxy]-2,3-dimethylphenyl}-N′-{2-[N-ethyl-N-(o-tolyl)amino]-ethyl}thiourea] | < 10 | 216 |  |  |  |
| CCCCCCOC(=O)Nc1ccc(Oc2ncnc3cc(OC)c(OC)cc23)cc1Cl [Example 336, Hexyl N-{2-chloro-4-[(6,7-dimethoxy-4-quinazolinyl)oxy]phenyl}carbamate] |  |  | 14 | 109 |  |
| COc1ccccc1COC(=O)Nc1ccc(Oc2ncnc3cc(OC)c(OC)cc23)cc1OC [Example 500, 2-Methoxybenzyl N-{4-[(6,7-dimethoxy-4-quinazolinyl)oxy]-2-methoxyphenyl}carbamate] | 14 | 199 |  |  |  |
| COc1cc2ncnc(Oc3ccc(NC(=O)OCCCOc4cccc(F)c4)c(C)c3C)c2cc1OC [Example 151, 3-(3-Fluorophenoxy)propyl N-{4-[(6,7-dimethoxy-4-quinazolinyl)oxy]-2,3-dimethylphenyl}carbamate] |  |  | 12 | 32 |  |
| COc1cc2nccc(Oc3cc(C)c(NC(=O)OCc4ccc(Cl)cc4)cc3C)c2cc1OC [Example 243, 4-Chlorobenzyl N-{4-[(6,7-dimethoxy-4-quinolyl)oxy]-2,5-dimethylphenyl}carbamate] |  |  | 20 | 190 |  |
| COc1cc2nccc(Oc3ccc(NC(=O)OCc4ccc(C)cc4)c(C)c3C)c2cc1OC [Example 234, 4-Methylbenzyl N-{4-[(6,7-dimethoxy-4-quinolyl)oxy]-2,3-dimethylphenyl}carbamate] |  |  | 10 | 46 |  |
| COc1cc2ncnc(Oc3ccc(NC(=O)N[C@@H]4CCN(Cc5ccccc5)C4)c([N+](=O)[O-])c3)c2cc1OC [Example 577, N-[(3R)-1-Benzyltetrahydro-1H-3-pyrrolyl]-N′-{4-[(6,7-dimethoxy-4-quinazolinyl)oxy]-2-nitrophenyl}urea] | 14 | 328 |  |  |  |
| COc1cc2ncnc(Oc3ccc(NC(=O)OCCCSc4ccc(Cl)cc4C)c(Cl)c3)c2cc1OC [Example 81, 3-[(4-Chloro-2-methylphenyl)sulfanyl]propyl N-{2-chloro-4-[(6,7-dimethoxy-4-quinazolinyl)oxy]phenyl}carbamate] |  |  | 12 | 408 |  |
| COc1cc2nccc(Oc3cc(C)c(NC(=O)OCCCOc4ccccc4Cl)cc3C)c2cc1OC [Example 18, 3-(2-Chlorophenoxy)propyl N-{4-[(6,7-dimethoxy-4-quinolyl)oxy]-2,5-dimethylphenyl}carbamate] |  |  | 22 | 93 |  |

Continued, in another order:

| IC50 [1] [nM] | IC50 ([2]; 50 ng/ml h-SCF) [nM] | IC50 ([1]; Pharmacological Test Example 1) [nM] | IC50 ([2]; h-SCF 50 ng/ml) [nM] | Structure (SMILES) | also measured |
| --- | --- | --- | --- | --- | --- |
| 20 | < 30 |  |  | COc1cc2ncnc(Oc3ccc(NC(=O)OCc4ccncc4)cc3)c2cc1OC [Example 434, 4-Pyridylmethyl N-{4-[(6,7-dimethoxy-4-quinazolinyl)oxy]phenyl}carbamate] |  |
| > 100 |  |  |  | COc1cc2ncnc(Oc3ccc(OCC(=O)N4CCC(N5CCCCC5)CC4)cc3)c2cc1OC [Example 805, 2-{4-[(6,7-Dimethoxy-4-quinazolinyl)oxy]phenoxy}-1-(4-piperidinopiperidino)-1-ethanone] | inhibition at 0.1 µM [1]: 14%; inhibition at 1 µM [2, 3]: 35% |
|  |  | 10 | 53 | CCCC(CC)OC(=O)Nc1ccc(Oc2ccnc3cc(OC)c(OC)cc23)c(C)c1C (stereo not drawn) [Example 277, 1-Ethylbutyl N-{4-[(6,7-dimethoxy-4-quinolyl)oxy]-2,3-dimethylphenyl}carbamate] |  |
| 64 | 623 |  |  | COc1cc2ncnc(Oc3ccc(NC(=S)NCCCN4CCOCC4)cc3)c2cc1OC [Example 533, N-{4-[(6,7-Dimethoxy-4-quinazolinyl)oxy]phenyl}-N′-[3-(1-morpholino)propyl]thiourea] |  |
| 26 | 632 |  |  | COc1cc2ncnc(Oc3ccc(NC(=O)NCCN4CCCCC4)cc3)c2cc1OC [Example 676, N-{4-[(6,7-Dimethoxy-4-quinazolinyl)oxy]phenyl}-N′-(2-piperidinoethyl)urea] |  |
|  |  | 10 | 176 | COc1cc2nccc(Oc3ccc(NC(=O)OCCc4cccc(C(F)(F)F)c4)cc3)c2cc1OC [Example 82, 3-(Trifluoromethyl)phenethyl N-{4-[(6,7-dimethoxy-4-quinolyl)oxy]phenyl}carbamate] |  |
| 27 |  |  |  | CCCc1ccc(C(=O)NC(=S)Nc2ccc(Oc3ccnc4cc(OC)c(OC)cc34)cc2F)cc1 [Example 994, N-{4-[(6,7-Dimethoxy-4-quinolyl)oxy]-2-fluorophenyl}-N′-(4-propylbenzoyl)thiourea] | inhibition at 1 µM ([2]; figure in parentheses in −( )): 47% |
|  |  | < 10 | 135 | COc1cc2nccc(Oc3ccc(NC(=O)OCc4ccc(C(F)(F)F)cc4)cc3)c2cc1OC [Example 21, 4-(Trifluoromethyl)benzyl N-{4-[(6,7-dimethoxy-4-quinolyl)oxy]phenyl}carbamate] |  |
| 16 | 937 |  |  | CCN(CC)CCNC(=O)Nc1ccc(Oc2ccnc3cc(OC)c(OC)cc23)c(C)c1 [Example 648, N-[2-(Diethylamino)ethyl]-N′-{4-[(6,7-dimethoxy-4-quinolyl)oxy]-3-methylphenyl}urea] |  |
|  |  | < 10 | 387 | COc1cc2ncnc(Oc3ccc(NC(=O)OC(C)c4ccccc4Br)cc3)c2cc1OC (stereo not drawn) [Example 115, 1-(2-Bromophenyl)ethyl N-{4-[(6,7-dimethoxy-4-quinazolinyl)oxy]phenyl}carbamate] |  |
| > 100 | 941 |  |  | CCCC(CCN1CCCCC1)OC(=O)Nc1ccc(Oc2ccnc3cc(OC)c(OC)cc23)cc1 (stereo not drawn) [Example 445, 1-(2-Piperidinoethyl)butyl N-{4-[(6,7-dimethoxy-4-quinolyl)oxy]phenyl}carbamate] | inhibition at 0.1 µM [1]: 11% |
|  |  | 18 | 402 | COc1cc2nccc(Oc3ccc(NC(=O)OC(C)c4ccccc4Br)c(C)c3C)c2cc1OC (stereo not drawn) [Example 113, 1-(2-Bromophenyl)ethyl N-{4-[(6,7-dimethoxy-4-quinolyl)oxy]-2,3-dimethylphenyl}carbamate] |  |
| 33 | 445 |  |  | CCN(CC)CCOC(=O)Nc1ccc(Oc2ccnc3cc(OC)c(OC)cc23)cc1 [Example 435, 2-(Diethylamino)ethyl N-{4-[(6,7-dimethoxy-4-quinolyl)oxy]phenyl}carbamate] |  |
|  |  | < 10 | 621 | COc1cc2ncnc(Oc3ccc(NC(=O)OC(C)c4cccc(C(F)(F)F)c4)cc3)c2cc1OC (stereo not drawn) [Example 90, 1-[3-(Trifluoromethyl)phenyl]ethyl N-{4-[(6,7-dimethoxy-4-quinazolinyl)oxy]phenyl}carbamate] |  |
|  |  | < 10 | 253 | CCCCC(CC)OC(=O)Nc1ccc(Oc2ccnc3cc(OC)c(OC)cc23)cc1 (stereo not drawn) [Example 329, 1-Ethylpentyl N-{4-[(6,7-dimethoxy-4-quinolyl)oxy]phenyl}carbamate] |  |
|  |  | < 10 | 233 | COc1cc2nccc(Oc3ccc(NC(=O)OCCSc4ccc(C)cc4)cc3)c2cc1OC [Example 137, 3-[(4-Methylphenyl)sulfanyl]ethyl N-{4-[(dimethoxy-4-quinolyl)oxy]-phenyl}carbamate] |  |
| 28 |  |  |  | COc1cc2nccc(Oc3ccc(NC(=S)NC(=O)c4cccc(C)c4C)cc3)c2cc1OC [Example 1005, N-{4-[(6,7-Dimethoxy-4-quinolyl)oxy]phenyl}-N′-(2,3-dimethylbenzoyl)thiourea] | IC50 ([2]; h-SCF stimulation): 674 nM |
|  |  | 19 | 328 | COc1ccc(OCCCOC(=O)Nc2cc(C)c(Oc3ccnc4cc(OC)c(OC)cc34)cc2C)cc1 [Example 44, 3-(4-Methoxyphenoxy)propyl N-{4-[(6,7-dimethoxy-4-quinolyl)oxy]-2,5-dimethylphenyl}carbamate] |  |
